For the experiment, the system named is CD2F1 mice, L1210 leukemia ip, survival T/C. In words: NCI In Vivo Anticancer Drug Screen. Data for tumor model L1210 Leukemia (intraperitoneal) in CD2F1 (CDF1) mice. Conditions: higher = longer survival. In short, it runs like this:
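Ratio T/C, where T is the treated-group value and C the vehicle-dosed control value, from mice implanted with a transplantable tumor.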

[1] abbreviates: endpoint: mean survival time, dose: 100.0 mg/kg/injection, schedule: Q04DX003 (ip), vehicle: saline with Tween-80.
Where [2] appears, read: endpoint: mean survival time, dose: 100.0 mg/kg/injection, schedule: Q04DX003 (ip), vehicle: Klucel (hydroxypropylcellulose) (HPC).
[3] abbreviates: endpoint: mean survival time, dose: 200.0 mg/kg/injection, schedule: Q04DX003 (ip), vehicle: Klucel (hydroxypropylcellulose) (HPC).
Where [4] appears, read: endpoint: mean survival time, dose: 400.0 mg/kg/injection, schedule: Q04DX003 (ip), vehicle: Klucel (hydroxypropylcellulose) (HPC).
Setting [5] is: endpoint: mean survival time, dose: 100.0 mg/kg/injection, schedule: Q04DX002 (ip), vehicle: saline with Tween-80.
Where [6] appears, read: endpoint: mean survival time, dose: 200.0 mg/kg/injection, schedule: Q04DX002 (ip), vehicle: saline with Tween-80.
[7] abbreviates: endpoint: mean survival time, dose: 12.5 mg/kg/injection, schedule: Q01DX009 (ip), vehicle: saline.

“And” between values parts separate entries of the source, which are not always exact repeats. Identical values can stand only once. Inconclusive results and toxic doses are left out.

From PubChem BioAssay AID256 (DTP/NCI, 2004) come the findings set out here.

Turning to `COc1ccc(/C=N/NC(N)=S)cc1`, the T/C runs as follows: (endpoint: mean survival time, dose: 16.0 mg/kg/injection, schedule: Q01DX008 (iv), vehicle: saline) 98 % of control; (endpoint: mean survival time, dose: 32.0 mg/kg/injection, schedule: Q01DX008 (iv), vehicle: saline) 100 % of control; (endpoint: mean survival time, dose: 32.0 mg/kg/injection, schedule: Q01DX009 (ip), vehicle: saline) 100 % of control and 109 % of control; (endpoint: mean survival time, dose: 64.0 mg/kg/injection, schedule: Q01DX008 (iv), vehicle: saline) 97 % of control; (endpoint: mean survival time, dose: 64.0 mg/kg/injection, schedule: Q01DX009 (ip), vehicle: saline) 98 % of control; (endpoint: mean survival time, dose: 128.0 mg/kg/injection, schedule: Q01DX009 (ip), vehicle: saline) 100 % of control and 109 % of control. Moreover, the T/C (endpoint: mean survival time, dose: 256.0 mg/kg/injection, schedule: Q01DX009 (ip), vehicle: saline) was 104 % of control and 112 % of control.

On to `CCCCNC(=O)C1CC2c3cccc4c3C(CN4)CC2N(C)C1` (stereo not drawn), for which the T/C is, setting by setting: (endpoint: mean survival time, dose: 50.0 mg/kg/injection, schedule: Q04DX003 (ip), vehicle: saline with Tween-80) 94 % of control; under setting [1], 88 % of control.

Turning to `O=c1ccn2cnc3c(ncn3C3OC(CO)C(O)C3O)c2n1` (stereo not drawn), the T/C was 105 % of control (endpoint: median survival time, dose: 12.5 mg/kg/injection, schedule: Q01DX005 (ip), vehicle: saline with Tween-80); 98 % of control (endpoint: median survival time, dose: 25.0 mg/kg/injection, schedule: Q01DX005 (ip), vehicle: saline with Tween-80); 98 % of control (endpoint: median survival time, dose: 50.0 mg/kg/injection, schedule: Q01DX005 (ip), vehicle: saline with Tween-80); 103 % of control (endpoint: median survival time, dose: 100.0 mg/kg/injection, schedule: Q01DX005 (ip), vehicle: saline with Tween-80); 103 % of control (endpoint: median survival time, dose: 200.0 mg/kg/injection, schedule: Q01DX005 (ip), vehicle: saline with Tween-80).

For the compound `C[CH2][Pb]([CH2]C)([CH2]C)[O]C(=O)COc1ccccc1`, the T/C is 104 % of control (endpoint: mean survival time, dose: 1.5 mg/kg/injection, schedule: Q04DX003 (ip), vehicle: Klucel (hydroxypropylcellulose) (HPC)); 97 % of control (endpoint: mean survival time, dose: 3.0 mg/kg/injection, schedule: Q04DX003 (ip), vehicle: Klucel (hydroxypropylcellulose) (HPC)); 100 % of control (endpoint: mean survival time, dose: 6.0 mg/kg/injection, schedule: Q04DX003 (ip), vehicle: Klucel (hydroxypropylcellulose) (HPC)); 104 % of control (endpoint: mean survival time, dose: 12.0 mg/kg/injection, schedule: Q04DX003 (ip), vehicle: Klucel (hydroxypropylcellulose) (HPC)); 86 % of control (endpoint: mean survival time, dose: 24.0 mg/kg/injection, schedule: Q04DX003 (ip), vehicle: Klucel (hydroxypropylcellulose) (HPC)).

Consider `Cc1ccc(NCCN2CCCCC2)c2c(=O)c3ccccc3sc12`, for which the T/C is, setting by setting: under setting [2], 93 % of control; under setting [3], 103 % of control; under setting [4], 109 % of control.

Consider `O=S1(=O)CC2(OCCO2)C1Cl` (stereo not drawn), for which the T/C under setting [5] was 95 % of control and the T/C under setting [6] was 91 % of control.

For `COc1cccc2c1C(=O)c1c(O)c3c(c(O)c1C2=O)CC(O)(/C(C)=N/NC(=O)CCC(=O)N/N=C(\C)C1(O)Cc2c(O)c4c(c(O)c2C(OC2CC(N)C(O)C(C)O2)C1)C(=O)c1c(OC)cccc1C4=O)CC3OC1CC(N)C(O)C(C)O1` (stereo not drawn), the T/C (endpoint: mean survival time, dose: 0.39 mg/kg/injection, schedule: Q01DX009 (ip), vehicle: water) is 102 % of control; the T/C (endpoint: mean survival time, dose: 0.78 mg/kg/injection, schedule: Q01DX009 (ip), vehicle: water) was 106 % of control; the T/C (endpoint: mean survival time, dose: 1.56 mg/kg/injection, schedule: Q01DX009 (ip), vehicle: water) is 113 % of control and 101 % of control; the T/C (endpoint: mean survival time, dose: 3.13 mg/kg/injection, schedule: Q01DX009 (ip), vehicle: water) is 106 % of control and 111 % of control; the T/C (endpoint: mean survival time, dose: 6.25 mg/kg/injection, schedule: Q01DX009 (ip), vehicle: water) was 118 % of control; the T/C (endpoint: mean survival time, dose: 12.5 mg/kg/injection, schedule: Q01DX009 (ip), vehicle: water) was 150 % of control. For the same compound, where the note is “endpoint: mean survival time, dose: 25.0 mg/kg/injection, schedule: Q01DX009 (ip), vehicle: water”, the T/C was 111 % of control.

In the case of `CCOC(=O)c1ccc(N2C(=O)C=CC2=O)cc1`, under setting [7], the T/C is 97 % of control.

For `COc1nn(O)cc2cc(C(=O)O)nc1-2`, the T/C is 104 % of control (endpoint: mean survival time, dose: 12.5 mg/kg/injection, schedule: Q04DX002 (ip), vehicle: saline with Tween-80); 104 % of control (endpoint: mean survival time, dose: 25.0 mg/kg/injection, schedule: Q04DX002 (ip), vehicle: saline with Tween-80); 101 % of control (endpoint: mean survival time, dose: 50.0 mg/kg/injection, schedule: Q04DX002 (ip), vehicle: saline with Tween-80).

Consider `O=[N+]([O-])c1nccn1CC(O)CO` (stereo not drawn), for which the T/C runs as follows: under setting [7], 102 % of control; (endpoint: mean survival time, dose: 25.0 mg/kg/injection, schedule: Q01DX009 (ip), vehicle: saline) 105 % of control; (endpoint: mean survival time, dose: 50.0 mg/kg/injection, schedule: Q01DX009 (ip), vehicle: saline) 102 % of control; (endpoint: mean survival time, dose: 100.0 mg/kg/injection, schedule: Q01DX009 (ip), vehicle: saline) 101 % of control; (endpoint: mean survival time, dose: 200.0 mg/kg/injection, schedule: Q01DX009 (ip), vehicle: saline) 102 % of control; (endpoint: mean survival time, dose: 400.0 mg/kg/injection, schedule: Q01DX009 (ip), vehicle: saline) 103 % of control.

Regarding `Cc1cc(S(N)(=O)=O)c(N)c(S(N)(=O)=O)c1`, the T/C is, setting by setting: under setting [1], 96 % of control; (endpoint: mean survival time, dose: 200.0 mg/kg/injection, schedule: Q04DX003 (ip), vehicle: saline with Tween-80) 93 % of control; (endpoint: mean survival time, dose: 400.0 mg/kg/injection, schedule: Q04DX003 (ip), vehicle: saline with Tween-80) 102 % of control.

On to `CC(C)OC(=O)N(C(=O)OC(C)C)c1ccc(Cl)cc1`, for which the T/C reads like this: under setting [5], 97 % of control; under setting [6], 94 % of control; (endpoint: mean survival time, dose: 400.0 mg/kg/injection, schedule: Q04DX002 (ip), vehicle: saline with Tween-80) 102 % of control.

`O=C1c2cc(Cl)ccc2OCC1Cl` (stereo not drawn): the T/C was 87 % of control (endpoint: mean survival time, dose: 100.0 mg/kg/injection, schedule: Q01DX001 (ip), vehicle: saline with Tween-80); 91 % of control (endpoint: mean survival time, dose: 200.0 mg/kg/injection, schedule: Q01DX001 (ip), vehicle: saline with Tween-80); 93 % of control (endpoint: mean survival time, dose: 400.0 mg/kg/injection, schedule: Q01DX001 (ip), vehicle: saline with Tween-80).

Take `Cc1ccc(S(=O)(=O)NC(=O)O/N=C/c2ccccn2)cc1`: the T/C reads like this: (endpoint: mean survival time, dose: 100.0 mg/kg/injection, schedule: Q01DX009 (ip), vehicle: saline with Tween-80) 100 % of control; (endpoint: mean survival time, dose: 200.0 mg/kg/injection, schedule: Q01DX009 (ip), vehicle: saline with Tween-80) 91 % of control; (endpoint: mean survival time, dose: 400.0 mg/kg/injection, schedule: Q01DX009 (ip), vehicle: saline with Tween-80) 100 % of control.

Take `Cc1ccc(CS(=O)(=O)C(Cl)(Cl)c2ccc(C)cc2)cc1`: the T/C is, setting by setting: under setting [2], 94 % of control; under setting [3], 100 % of control; under setting [4], 94 % of control.

Take `COc1cc(OC)c(OC)cc1/C=C\c1ccc2ccccc2[n+]1C`: the T/C is, setting by setting: (endpoint: mean survival time, dose: 12.5 mg/kg/injection, schedule: Q01DX009 (ip), vehicle: saline with Tween-80) 100 % of control; (endpoint: mean survival time, dose: 25.0 mg/kg/injection, schedule: Q01DX009 (ip), vehicle: saline with Tween-80) 91 % of control; under setting [1], 104 % of control.

For the compound `O=C(c1ccccc1)C12CC3CC1C2C3`, the T/C was 97 % of control (endpoint: mean survival time, dose: 100.0 mg/kg/injection, schedule: Q04DX003 (ip), vehicle: saline); 100 % of control (endpoint: mean survival time, dose: 200.0 mg/kg/injection, schedule: Q04DX003 (ip), vehicle: saline); 89 % of control (endpoint: mean survival time, dose: 400.0 mg/kg/injection, schedule: Q04DX003 (ip), vehicle: saline).

On to `O=C(O)C[N-]CC[N-]CC(=O)O.[Cl][Pt+2][Cl]`, for which the T/C is, setting by setting: (endpoint: mean survival time, dose: 6.25 mg/kg/injection, schedule: Q04DX003 (ip), vehicle: other) 101 % of control; (endpoint: mean survival time, dose: 12.5 mg/kg/injection, schedule: Q04DX003 (ip), vehicle: other) 100 % of control; (endpoint: mean survival time, dose: 25.0 mg/kg/injection, schedule: Q04DX003 (ip), vehicle: other) 104 % of control; (endpoint: mean survival time, dose: 50.0 mg/kg/injection, schedule: Q04DX003 (ip), vehicle: other) 109 % of control.

Consider `CN(C)CCCN(C)CCCN(C)C`, for which the T/C by setting is: (endpoint: mean survival time, dose: 75.0 mg/kg/injection, schedule: Q01DX001 (ip), vehicle: saline) 104 % of control; (endpoint: mean survival time, dose: 150.0 mg/kg/injection, schedule: Q01DX001 (ip), vehicle: saline) 103 % of control.
